“Also recorded” adds a separate entry of the source.

Experiment [1] concerns FSHD biomarkers MBDL3L3, TRIM42 and ZSCAN4. Description: Quantitative real-time PCR of FSHD biomarkers in patient myotubes. The experiment is classed as cell-based, human. How it is done:
One common way to test potential therapies for FSHD is to measure a reduction in FSHD biomarker genes (FIG. 16B). […] Briefly, patient primary myoblasts (17A and 16A) were placed in differentiation media. At day four, drug compounds were added, and myotubes were harvested 24 hours later. RNA extraction and cDNA synthesis was performed. Quantitative real-time PCR for FSHD biomarkers levels of MBDL3L3, TRIM42 and ZSCAN4 was performed. Results indicated a significant reduction in biomarker levels for the majority of drugs tested.
For orientation: Real-time PCR tracks product formation cycle by cycle.

A further experiment deals with DUX4 toxicity. Description: Caspase 3/7 activity assay (luciferase read-out) of DUX4-induced cell death. The experiment is classed as cell-based, human. From the text:
FIGS. 14A and 14B illustrate a method for assaying cell death. FIG. 14A is a schematic diagram showing a method for assaying cell death by measuring Caspase 3/7 activity using a luciferase read-out.
FIG. 14B presents graphical data generated from the doxycycline-inducible assay.
The DUX4 gene encodes a transcription factor whose expression is rare, but extremely toxic. DUX4 transcription factor controls more than 100 early developmental genes. Misexpression of DUX4 is hypothesized to induce inappropriate expression of downstream genes to cause disease pathogenesis. […] Non-manifesting carriers of FSHD alleles who are found to express DUX4, point to the existence of genetic modifiers that may act to suppress DUX4 toxicity. The clinical, histopathological and molecular evidence for asymptomatic/non-manifesting carriers of FSHD is provided at FIGS. 1A-1F. As reported herein below, a genome-wide CRISPR loss-of-function library was used to identify genes that modulate DUX4 induced toxicity and act as genetic modifiers of FSHD (FIG. 1M). This powerful resource has enabled the assessment of the impact of all loss-of-function gene edits across the entire genome. This approach permitted the isolation of genes that influence survivability of DUX4 toxicity. These genes were validated in vitro by generation of individual knock-out lines, using a Caspase-3/7 assay to quantify reduced DUX4-induced apoptosis, and using inhibitor compounds to mimic gene knock-outs. These genes are also being evaluated in vivo.
The abundance of sgRNAs in each of the LOF cell lines was measured (FIG. 12). Each sgRNA is specific to the gene. Single gene knock-outs were generated using a lenti-CRISPR plasmid. […] To determine whether the results observed with Hif1a knockout could be recapitulated using an inhibitor of Hif1a, experiments with small compound inhibitors were carried out (FIGS. 15A, 15B, 16C, 16D). […] Herbimycin A is a benzoquinone drug (used for anti-cancer treatment) that binds and inhibits heat shock protein 90 (HSP90) chaperone (tyrosine kinase inhibitor) and is known to deplete dephosphorylated HIF1a. […]

A further experiment concerns DUX4 inducible cell line. The experiment in a line: Cell death assay: caspase fluorescence (FITC) in DUX4 inducible cell line after doxycycline. It is filed as cell-based. The settings on record: after 48 hours of doxycycline treatment. How it is done: FIG. 17A includes a series of micrographs. Fluorescence from labeled caspase is visible (fluorescein isothiocynate (FITC)) in a DUX4 inducible cell line after 48 hours of doxy cy cline treatment.
Cell death assay were then used to validate single knock-outs cell lines (FIGS. 17A-17C).

A further experiment concerns DUX4-injected zebrafish. Description: DUX4-injected zebrafish model of FSHD. It is filed as in vivo. The following applies: drug 24 hr post-injection; day 7; compared to DUX4-injected no drug control group. An excerpt: FSHD has proven to be a difficult disease to model in animals given the primate-specific origins of DUX4, its sporadic activation and mosaic expression, as well as the complex epigenetic components associated with the disease. Our published DUX4 zebrafish model was the first to recapitulate the muscle-eye-ear combination of phenotypes described in human FSHD (FIGS. 1N-A, 1N-B, 1N-C). […] These established DUX4 models of FSHD provide for functional follow-up experiments for candidate genes identified in CRISPR screens.
Drugs that show efficacy in vitro can be tested in a zebrafish model of FSHD. […] After injecting DUX4 into zebrafish, the test subjects were then treated with the four drug compounds 24 hr post-injection. Injected fish were categorized into affected or unaffected groups based on whole-body phenotype (FIG. 18A).

In the case of `COC(=O)c1ccc(O)c(NC(=O)COc2ccc(C34CC5CC(CC(C5)C3)C4)cc2)c1` [Hif1a inhibitor], in experiment [1] (patient primary myoblasts 16A and 17A, drug added at day four of differentiation, harvested 24 hours later), the “FSHD biomarker levels (MBDL3L3, TRIM42, ZSCAN4)” value is listed as “Dose-response reduction of biomarkers”.
As for `CO[C@H]1[C@@H](OC)C[C@H](C)[C@@H](OC)C2=CC(=O)C=C(NC(=O)/C(C)=C/C=C\[C@H](OC)[C@@H](OC(N)=O)/C(C)=C/[C@@H]1C)C2=O` [Herbimycin A], the “suppression of DUX4 toxicity” value in the experiment with DUX4 toxicity (20 uM) is “good suppression of DUX4 toxicity”. In addition, in the experiment on DUX4 toxicity, the “efficacy in vitro measured by caspase 3/7 activity” value is “showed efficacy in vitro”. Moreover, the “efficacy in patient cell lines” value in experiment [1] is recorded as “efficacy”. The caspase fluorescence result with DUX4 inducible cell line is “reduced caspase fluorescence”. The “percentage of affected fish (whole-body phenotype)” value with DUX4-injected zebrafish is listed as “significantly reduced; also recorded: significantly decreased percentage of affected fish”.
On to `O=c1cc(N2CCOCC2)oc2c(-c3ccccc3)cccc12` [LY294002, Ly294002], for which the “efficacy in vitro measured by caspase 3/7 activity” value in the experiment on DUX4 toxicity is recorded as “showed efficacy in vitro”. In experiment [1], the “efficacy in patient cell lines” value was “efficacy”. Besides, the caspase fluorescence result in the experiment on DUX4 inducible cell line is “reduced caspase fluorescence”.

Source of the values: patent publication US11674140B2, “Compositions and methods for treating facioscapulohumeral dystrophy” (THE CHILDREN'S MEDICAL CENTER CORPORATION, priority 2017, dated 2023).
